Entries after “also recorded” stand apart in the source; their conditions may differ. Like-named read-outs stand apart in the source and are kept apart here.
What was measured:
[1] = tested on: LTB4-induced PMN infiltration; details: added topically, in vivo; cited from earlier work
[2] = Biostability of LX analogs in mouse whole blood; details: incubated 3 h at 37° C., LC/MS/MS
Procedure: (§1) LXA4 (21 mM) was incubated ex vivo in mouse whole blood for 3 h. […] (B) Biostability of LXA4 and stable analogs in mouse whole blood. LXA4, 15(R/S)-methyl-LXA4 (ATLa1, which carries a racemic methyl group at C-15), and 15-epi-16-(para-fluoro)-phenoxy-LXA4(ATLa2, in which a bulky (para-fluoro)-phenoxy group replaces the w-chain at C-16) were added (see Methods) to heparinized mouse whole blood and incubated at 37° C. for 0 and 3 h. Following centrifugation at 800×g and 0° C., the plasma supernatants were drawn off and stopped in two volumes of ice cold methanol. The lipoxins were extracted by solid phase methodology and quantitated by LC/MS/MS. Values represent means±SEM (n=3-4).
(§2) Biostability of LX analogs in mouse whole blood. […] The methyl formate fractions were taken to dryness with a gentle stream of nitrogen and suspended in methanol for injection and quantitative analyses by UV spectrophotometry and LC/MS/MS.
(§3) LC/MS/MS analyses. […] Samples were suspended in methanol and injected into the HPLC component, which consisted of a SpectraSYSTEM P4000 (Thermo Separation Products, San Jose, Calif.) quaternary gradient pump, a Prodigy octadecylsilane-3 (100×2 mm, 5 mm) column (Phenomenex, Torrance, Calif.) or a LUNA C18-2 (150×2 mm, 5 mm) column, and a rapid spectra scanning SpectraSYSTEM UV2000 (Thermo Separation Products, San Jose, Calif.) UV/VIS absorbance detector. […]

[3] = Biostability in human whole blood; type: in vitro ADME
isolated rat aorta = test: Relaxation of pre-contracted isolated rat aorta; set-up: relaxation as % of the level of relaxation caused by Iloprost: dose or concentration left out as unconfirmed; details: for relaxation of smooth muscle: aorta pre-contracted with U46619 (25 ng/ml)
Procedure: Rats were euthanized with pentobarbital overdoses. The aorta was isolated and a pre-load of 300-400 mg given. The vessels were pre-contracted with U46619 (25 ng/ml). Relaxation was induced with addition of Iloprost, 5(R/S)-methyl-LXB4, ATLa1, or ATLa2 to a final concentration of […]. Aorta smooth muscle relaxation was measured with a force transducer and the data digitized and stored on a PC. 5(R/S)-methyl -LXB4, ATLa1, and ATLa2 caused 42.8%, 37.0%, 38.1%, and 40.0% relaxation of smooth muscle, respectively. Values represent±SEM (n=4-6).
For example, topical administration of LXA4 ([…]) induces arteriolar dilation in the hamster cheek with no change in venular diameters while systemic delivery into rats produces a vasoconstrictor response in the mesenteric bed (26). In addition, 20 min infusion of 1 or 2 mg/kg LXA4 induces renal vasorelaxation in rats without changing mean arterial pressure (27). To determine whether the increased stability of ATLa2 enhances potential vasoreactivity at the therapeutic dose found to inhibit PMN infiltration in FIGS. 2 and 5, vascular changes in response to ATLa2 were compared directly to those of Iloprost, a prostacyclin stable analog that rapidly stimulates arterial vasodilation (Grant, S. M. & Goa, K. L. (1992) Drugs 43, 899-924). Added to organ baths, ATLa2 relaxed precontracted isolated rat aorta to ˜40% of the level of relaxation caused by equimolar treatment ([…]) with Iloprost (not shown). […] In sharp contrast, injection of equimolar quantities of Iloprost elicited a maximum mean decrease of ˜28 mmHg ˜50 s post-injection, with pressure returning to baseline after ˜8 min.

[4] = tested on: TNF-a-induced PMN infiltration; test: TNF-a-induced PMN infiltration into mouse dorsal air pouch; type: in vivo; set-up: toxicity to the mice: dose or concentration left out as unconfirmed; details: for inhibition of TNF-a-induced PMN infiltration, local air pouch delivery: local into air pouch prior to TNF-a (20 ng/mouse), ATLa2 and dexamethasone, ASA 1.0 mg/mouse
Procedure: When injected locally into the air pouch, following injection of vehicle (900 ml PBS), murine TNF-a (20 ng/100 ml PBS) induced the infiltration of 4.8±1.1×10^6 PMN by 4 h. Dexamethasone (10 mg/air pouch), ASA (1 mg/air pouch), and ATLa2 (10 mg/air pouch) were locally administered in 900 ml PBS and prior to TNF-a. Systemic delivery of ATLa2 was by i.v. injection into the mouse tail vein (10 mg/mouse). 2.1±0.7×105 PMN were found in the air pouch 4 h after injection of vehicle (1 ml sterile PBS) alone. Values represent mean±SEM (n=3-5). *P<0.05, †P<0.15 Student's two-tailed t-test
PMN infiltration into mouse air pouch. While male BALB/c mice (6-8 wk) were anesthetized with isoflurane, dorsal air pouches were raised by injecting 3 ml of sterile air subcutaneously on days 0 and 3 (as in ref.) (Sin, Y. M., Sedgwick, A. D., Chea, E. P. & Willoughby, D. A. (1986) Ann. Rheum. Dis. 45, 873-877). On day 6 and while the mice were anesthetized with isoflurane, 10 mg of ATLa2 was delivered as a bolus injection into either the tail vein in 100 ml of sterile 0.9% saline or locally into the air pouch in 900 ml of PBS −/− (Dulbecco's Phosphate Buffered Saline without magnesium or calcium ions, BioWhittaker, Walkersville, Md.). Dexamethasone and ASA (Sigma Chemical Co., St. Louis, Mo.) were delivered locally as 10 mg and 1.0 mg doses in 900 ml of PBS −/−, respectively. Inflammation in the air pouch was induced by local injection of recombinant murine TNF-a (20 ng) (Boehringer Mannheim, Indianapolis, Ind.) dissolved in 100 ml of sterile PBS. While the mice were anesthetized with isoflurane, the air pouches were lavaged twice with 3 ml of sterile PBS 4 h after the initial TNF-a injection. Aspirates were centrifuged at 2000 rpm for 15 min at 23° C. The supernatants were removed and the cells were suspended in […] of PBS. Aliquots of the cell suspension were stained with Trypan Blue and enumerated by light microscopy. 50 ml of the resuspended aspirate cells were added to 150 ml of 30% BSA and centrifuged onto microscope slides at 2200 rpm for 4 min using a Cytofuge (StatSpin, Norwood, Mass.). Slides were allowed to air dry and were stained with Wright Giemsa stain (Sigma Chemical Co., St. Louis, Mo.) for determination of differential leukocyte counts. For microscopic analysis, tissues were obtained with a 6 mm tissue biopsy punch (Acu-Punch, Acuderm, Inc., Ft. Lauderdale, Fla.) and fixed in 10% buffered formaldehyde. Samples were then embedded in paraffin, sliced, and stained with hematoxylin-eosin.

[5] = Mouse arterial pressure after tail vein injection; type: in vivo; set-up: maximum mean decrease in arterial pressure: dose or concentration left out as unconfirmed
Procedure: Mouse arterial pressure was monitored with a pressure transducer via the cannulated carotid artery. […] 10 mg of ATLa2 were injected into 3 mice with no change in mean arterial pressure. Values represent mean±SEM (n=3). Arterial pressure. Male BALB/c mice (6-8 wk, 20 g) were anesthetized with pentobarbital (80 mg/kg). The trachea was isolated and a small polyethylene catheter (PE50) was introduced to maintain a patent airway. The right carotid artery was isolated and cannulated with PE 10 tubing filled with heparinized (10 units/ml) normal saline. The arterial catheter was connected to a pressure transducer (World Precision Instruments, Sarasota, Fla.) and the arterial pressure tracing was recorded continuously (Astromed MT95K2, West Warwick, R.I.). All surgical manipulations were performed using a surgical microscope (Carl Zeiss, Inc., Thomwood, N.Y.).

[6] = male, BALB/c, 3 h, 2.4 mM
Procedure: as §1, §2, §3

[7] = Methyl ester hydrolysis of ATLa2 to free acid in ex vivo mouse whole blood; type: in vitro ADME; details: within 10-15 minutes, 2.8 μM in mouse whole blood
Procedure: FIG. 7 represents methyl ester hydrolysis of ATLa2 to free acid in ex vivo mouse whole blood. ATLa2 was incubated ex vivo in mouse whole blood (2.8 μM) for 0, 2, 5, 10, 15, or 180 minutes. The incubations were stopped by chilling the blood on ice for one minute followed by centrifugation (800×g) at 0° C. The plasma supernatant was stopped in 2 vol of ice cold methanol. The samples were prepared for analysis by solid phase extraction and the amount of free acid in the sample was quantiitated by LC/MS/MS. Within 10-15 minutes, 100% of the ATLa2 methyl ester is hydrolyzed to the free acid without loss of compound. Values represent mean±SEM (n=3).

**Q.** With `CCCCC[C@H](O)/C=C/C=C\C=C\C=C\[C@@H](O)[C@@H](O)CCCC(=O)O` [LXA4, 5S,6R,15S-trihydroxyeicosa-7E,9E,11Z,13E-tetraenoic acid] as the molecule, how does the “level of inhibition of LTB4-induced PMN recruitment compared to that of either ATLa1 or ATLa2” value [1] read?
**A.** less than 25%

**Q.** Which results are given for `CCCCCC(C)(O)/C=C/C=C\C=C\C=C\[C@@H](O)[C@@H](O)CCCC(=O)O` (mixture of isomers) [ATLa1, 15(R/S)-methyl-LXA4]?
**A.** remaining / recoverable in mouse whole blood [2]: ~90%; biostability in human whole blood compared with mouse whole blood [3]: quantitatively similar results; relaxation of smooth muscle (isolated rat aorta): 38.1%

**Q.** With `CC(=O)Oc1ccccc1C(=O)O` [ASA, acetylsalicylic acid, reference compound] as the molecule, how does the “inhibition of TNF-a-induced PMN infiltration, local air pouch delivery” value (from here on “inhibition … local air pouch delivery”) ([4]; 4 h) read?
**A.** 69%

**Q.** With `C[C@@H]1C[C@H]2[C@@H]3CCC4=CC(=O)C=C[C@]4(C)[C@@]3(F)[C@@H](O)C[C@]2(C)[C@@]1(O)C(=O)CO` [dexamethasone, reference compound] as the molecule, how does the “inhibition … local air pouch delivery” value ([4]; 4 h) read?
**A.** 61%

**Q.** Which “relaxation of smooth muscle” value (isolated rat aorta) does the source give for `CC#CCC(C)[C@H](O)/C=C/[C@@H]1[C@H]2C/C(=C/CCCC(=O)O)C[C@H]2C[C@H]1O` (stereo partly shown) [Iloprost, reference compound] here?
**A.** 42.8%

**Q.** What about the “time of maximum mean decrease post-injection” value ([5]; tail vein injection) of the same molecule?
**A.** ~50 s

**Q.** And the “maximum mean decrease in arterial pressure” value ([5]; tail vein injection, (equimolar to ATLa2))?
**A.** ~28 mmHg

**Q.** Which “remaining / recoverable in mouse whole blood” value [6] does the source give for `COC(=O)CCC[C@H](O)[C@H](O)/C=C/C=C/C=C\C=C\[C@H](O)COc1ccc(F)cc1` [ATLa2] here?
**A.** ~100%

**Q.** What about the “relaxation of smooth muscle” value (isolated rat aorta) of the same molecule?
**A.** 40.0%

**Q.** What about the “relaxation as % of the level of relaxation caused by Iloprost” value (isolated rat aorta; organ baths) of the same molecule?
**A.** ~40%

**Q.** And the “ATLa2 methyl ester hydrolyzed to the free acid” value [7]?
**A.** 100%

**Q.** What about the “inhibition of TNF-a-induced PMN infiltration, i.v. delivery” value ([4]; i.v. tail vein before TNF-a (20 ng/mouse), 4 h) of the same molecule?
**A.** 85%

**Q.** And the “number of neutrophils in tissue lining of the air pouch (histology)” value ([4]; intra-pouch injection or i.v. prior to TNF-a)?
**A.** reduced

**Q.** What about the “inhibition … local air pouch delivery” value ([4]; 4 h) of the same molecule?
**A.** ~77%

**Q.** And the “toxicity to the mice” value ([4]; local or i.v.)?
**A.** no apparent toxicity

**Q.** And the “change in mean arterial pressure” value ([5]; (24 nmol/mouse) tail vein injection)?
**A.** no apparent changes; also recorded: no change

**Q.** With `CCCCCC(O)C(O)C=CC=CC=CC=CC(C)(O)CCCC(=O)O` (racemic) [5(R/S)-methyl-LXB4] as the molecule, how does the “relaxation of smooth muscle” value (isolated rat aorta) read?
**A.** 37.0%

— patent US8022105B2, “Prevention of neutrophil recruitment” (The Brigham and Women's Hospital, Inc., priority 1999, dated 2011)
